From PMC8353353, “Assessing reversible and irreversible binding effects of kinase covalent inhibitors through ADP-Glo assays” (STAR Protocols, 2021)

Columns and labels:
[1] = target: T1, MKK7 (Homo sapiens, UniProt O14733, S271D/T275D); experiment: ADP-Glo assay with kinase-inhibitor pre-incubation step (phosphorylation of cov-JNK3 substrate by MKK7); format: biochemical; settings: for luminescence intensity: raw data; for Normalized Intensity (%): normalized to Control DMSO only and Control No kinase
T1 construct: Recombinant MKK7 (full-length, S287D/T291D); made in house
T1 sequence (O14733 1-435 isoform O14733-3 S287D/T291D): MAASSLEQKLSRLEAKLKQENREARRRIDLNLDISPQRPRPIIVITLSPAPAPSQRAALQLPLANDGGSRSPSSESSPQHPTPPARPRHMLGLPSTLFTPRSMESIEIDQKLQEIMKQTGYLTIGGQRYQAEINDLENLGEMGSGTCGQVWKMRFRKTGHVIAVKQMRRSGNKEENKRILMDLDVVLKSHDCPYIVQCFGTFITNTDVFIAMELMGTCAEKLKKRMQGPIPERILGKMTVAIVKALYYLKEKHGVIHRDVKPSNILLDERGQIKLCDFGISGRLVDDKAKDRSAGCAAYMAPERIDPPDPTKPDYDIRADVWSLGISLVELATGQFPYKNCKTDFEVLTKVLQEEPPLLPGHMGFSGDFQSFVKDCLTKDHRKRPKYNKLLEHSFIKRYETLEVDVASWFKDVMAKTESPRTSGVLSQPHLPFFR
Description: The protocol described here uses Echo® 550 liquid handler. However, when performing with manual pipetting, adjusting pipetting volume of each component of the kinase reaction is required with an example provided in the above table. We had performed the following protocol using both pipetting methods, and observed similar assay quality with an example shown in Figure 3.
This part of the protocol describes a variation of the ADP-Glo^TM assay that includes a pre-incubation step between the tested inhibitors and MKK7 prior to an addition of ATP (Figure 4). […] Thus, apparent greater inhibitory potencies would be expected. The protocol below describes an experiment testing three inhibitors using fixed concentrations of 25 nM for MKK7 kinase, 30 μM for cov-JNK3 substrate and 100 μM for ATP with the layout of the assay plate shown in Figure 5. • 1. Thaw ADP-Glo^TM assay reagents. Place 10 mM ultra-pure ATP immediately on ice, while the other reagents can be kept at 22°C–25°C. • 2. Quick thaw MKK7 kinase and 10× cov-JNK3 substrate and spin both using benchtop centrifuge at high speed at 4°C for 10 min. Transfer clear supernatant into a new tube and keep on ice. • 3. Prepare 75 μL of 10× MKK7 kinase solution by diluting MKK7 to 250 nM in protein storage buffer. Keep the solution on ice until further use. • 4. Prepare the following mixtures and keep them on ice until further use. • a. Mixture 1: one part of 10× MKK7 kinase solution, one part of 10× cov-JNK3 substrate and eight part of the reaction buffer. For example, 500 μL of Mixture 1 contains 50 μL of 10× MKK7 kinase solution, 50 μL of 10× cov-JNK3 substrate and […] of the reaction buffer. This 500-μL Mixture 1 is adequate for approximately 100 reactions and will be used for the reactions containing inhibitors and the “Control DMSO only” wells (see Figure 5). • b. Mixture 2: one part of protein storage buffer, one part of 10× cov-JNK3 substrate and eight part of the reaction buffer. For example, 50 μL of Mixture 2 is made from 5 μL of protein storage buffer, 5 μL of 10× cov-JNK3 substrate and 45 μL of the reaction buffer. This 50-μL Mixture 2 is adequate for 10 reactions and is for the “Control No kinase” wells (see Figure 5). • c. Mixture 3: one part of 10× MKK7 kinase solution, one part of protein storage buffer and eight part of the reaction buffer. For example, 50 μL of Mixture 3 is made from 5 μL of 10× MKK7 kinase solution, 5 μL of protein storage buffer and 45 μL of reaction buffer. This 50-μL Mixture 3 is adequate for 10 reactions and is for the “Control No substrate” wells (see Figure 5) • 5. Prepare a serial dilution of inhibitors in a 384-well assay plate using the “Dose response” setting in Echo®550 acoustic liquid handler according to the manufacture’s manual. For this experiment, the dilution series of three inhibitors at 11 concentrations is prepared by the following steps (see also Figure 5 and Data S1 for an example input for Echo® dose response pipetting): • a. Prepare 5 mM inhibitor stock solutions in DMSO and transfer 25 μL of each into three different wells of an Echo® source plate. Fill the 4th well with 30 μL DMSO. • b. Use the “Dose response” program in Echo® 550 liquid handler with a DMSO backfill option to aliquot the correct volumes of the inhibitors and DMSO into each reaction wells in the assay plate according to the plate layout in Figure 5. Note that two intermediate compound dilutions will be created by the ECHO® dose response program (see Data S1 for an example input for Echo® dose response pipetting). 50 nL of DMSO should be transferred to each control well to ensure homogeneous assay conditions. The total transfer volume of 50 nL of either inhibitor alone, inhibitor plus DMSO or DMSO alone is fixed to ensure constant 1% final DMSO concentration (see Data S1 for an example input for Echo® dose response pipetting). • 6. […]

[2] = target: T1, MKK7; parameters: method as in Schröder et al., 2020; settings: with vs without kinase-inhibitor pre-incubation; Figure 6; ref Schröder et al., 2020; cited from earlier work
[3] = [Inhibitor] 1.49E-05 M (log -4.83)
[4] = [Inhibitor] 1.65E-08 M (log -7.78)
[5] = [Inhibitor] 1.65E-09 M (log -8.78)
[6] = [Inhibitor] 2.43E-10 M (log -9.62)
[7] = [Inhibitor] 2.91E-07 M (log -6.54)
[8] = [Inhibitor] 4.95E-05 M (log -4.31)
[9] = [Inhibitor] 4.95E-06 M (log -5.31)
[10] = [Inhibitor] 4.95E-09 M (log -8.31)
[11] = [Inhibitor] 8.08E-10 M (log -9.09)
[12] = [Inhibitor] 8.08E-11 M (log -10.09)
[13] = [Inhibitor] 9.71E-07 M (log -6.01)
[14] = [Inhibitor] 9.71E-08 M (log -7.01)

Row | luminescence intensity [1, 3] | luminescence intensity [1, 4] | luminescence intensity [1, 5] | luminescence intensity [1, 6] | luminescence intensity [1, 7] | luminescence intensity [1, 8] | luminescence intensity [1, 9] | luminescence intensity [1, 10] | luminescence intensity [1, 11] | luminescence intensity [1, 12] | luminescence intensity [1, 13] | luminescence intensity [1, 14] | Normalized Intensity (%) ([1]; log[Inhibitor] -4.31) | Normalized Intensity (%) ([1]; log[Inhibitor] -4.83) | Normalized Intensity (%) ([1]; log[Inhibitor] -5.31) | Normalized Intensity (%) ([1]; log[Inhibitor] -6.01) | Normalized Intensity (%) ([1]; log[Inhibitor] -6.54) | Normalized Intensity (%) ([1]; log[Inhibitor] -7.01) | Normalized Intensity (%) ([1]; log[Inhibitor] -7.78) | Normalized Intensity (%) ([1]; log[Inhibitor] -8.31) | Structure (SMILES) | also measured
1 | 18884 | 157972 | 195602 | 176476 | 49318 | 52382 | 64212 | 138435 | 152383 | 159956 | 22472 | 121319 | 17.05% | -1.74% | 23.69% | 0.27% | 15.33% | 55.73% | 76.30% | 65.34% | C=CC(=O)N1CCC[C@@H](n2nc(-c3ccc(Oc4ccccc4)cc3)c3c(N)ncnc32)C1 [Ibrutinib] | Normalized Intensity (%) ([1]; log[Inhibitor] -8.78): 97.41%; Normalized Intensity (%) ([1]; log[Inhibitor] -9.09): 73.16%; Normalized Intensity (%) ([1]; log[Inhibitor] -9.62): 86.68%; Normalized Intensity (%) ([1]; log[Inhibitor] -10.09): 77.41%
2 | 50306 | 167511 | 188762 | 186492 | 53403 | 62181 | 22921 | 186941 | 193825 | 208349 | 43374 | 94669 | 22.55% | 15.89% | 0.52% | 12.00% | 17.63% | 40.78% | 81.65% | 92.55% | CC(=O)c1cnc2ccc(-c3cc(Cl)c(O)c(Cl)c3)nc2c1N[C@H]1CC[C@H](CN(C)C)CC1 [OTSSP167] | Normalized Intensity (%) ([1]; log[Inhibitor] -8.78): 93.57%; Normalized Intensity (%) ([1]; log[Inhibitor] -9.09): 96.42%; Normalized Intensity (%) ([1]; log[Inhibitor] -9.62): 92.30%; Normalized Intensity (%) ([1]; log[Inhibitor] -10.09): 104.56%; shift of inhibitory potencies (IC50) between the two assay variants [2]: less pronounced
